Test results published in US20220362381A1, “REMOTELY TRIGGERED THERAPY” (Bambu Vault LLC, priority 2019, published 2022).

Legend:
[1] = Stabilization effect of surfactant on tetrakis aminium dye during emulsification (Epolight 1117 retention); type: physicochemical; details: retention in particles after emulsification; surfactant in aqueous phase as in label
Experimental: IR absorbing agent weight ratio=4.4:1). The organic phase (polymer and IR absorbing agents dissolved in dichloromethane) was injected directly into the aqueous phase (PVA solution with SDS surfactant) at the tip of the Turrax's roto-stator (i.e. directly into the flow being sheared by the roto-stator). The shear mixing at 8000 RPM was continued for 30 minutes. The resulting mixture was decanted into an open-mouth container and stirred magnetically for 16 hours. A solid suspension of particles containing IR absorbing agent was obtained. The solid suspension was centrifuged at 5000 RPM for 30 minutes and the particles were collected. The collected particles were washed with distilled water by resuspending the particles into distilled water and centrifuging as before to collect the particles. This washing process was repeated three times to remove residual PVA. The resulting MMA/BMA copolymer particles containing IR absorbing agent were air-dried. In the emulsion method of encapsulation, a surfactant is necessary to help keep the emulsion stable. While Aerosol® TR-70 (sodium bis(tridecyl) sulfosuccinate) could be used as an emulsifier to prepare polymer particles encapsulating Epolight™ 1117 tetrakis aminium dye, TR-70 only provided limited stabilization effects on the tetrakis aminium dye. […]

[2] = likelihood of association with drug induced liver injury; cited from earlier work
[3] = Leaching testing of curcumin/Epolight IR 1117 B-805 particles with and without VTMS shell (FIG. 13); type: physicochemical; details: B-805 particles with VTMS shell vs. without shell

SMILES	Likelihood Score [2]	also measured
CCCCCCCCCCCCOS(=O)(=O)[O-].[Na+] [Sodium dodecyl sulfate, sodium dodecyl sulfate]	–	% Epolight ™ 1117 Retention [1]: 85-90%
CCOc1cc2ncc(C#N)c(Nc3ccc(OCc4ccccn4)c(Cl)c3)c2cc1NC(=O)/C=C/CN(C)C [Neratinib]	E*	–
N#Cc1ccnc(N2C(=O)CC[C@H]2C(=O)N(c2cncc(F)c2)[C@H](C(=O)NC2CC(F)(F)C2)c2ccccc2Cl)c1 [Ivosidenib]	E*	–
CN1CC[C@@H](NC(=O)Nc2ccc(C#N)cc2)C[C@@H]1c1nc2ccccc2[nH]1 [Glasdegib]	E*	–
CC(=O)c1c(C)c2cnc(Nc3ccc(N4CCNCC4)cn3)nc2n(C2CCCC2)c1=O [Palbociclib]	E*	–
CO[C@@H]1[C@H](N(C)C(=O)c2ccccc2)C[C@H]2O[C@]1(C)n1c3ccccc3c3c4c(c5c6ccccc6n2c5c31)C(=O)NC4 [Midostaurin]	E*	–
COc1cc(/C=C/C(=O)CC(=O)/C=C/c2ccc(O)c(OC)c2)ccc1O [Curcumin, curcumin]	–	reduction of leaching by the VTMS shell [3]: 70%
COC(=O)N[C@@H](C)CNc1nccc(-c2cn(C(C)C)nc2-c2cc(Cl)cc(NS(C)(=O)=O)c2F)n1 [Encorafenib]	E*	–
Cn1ncnc1[C@H]1c2n[nH]c(=O)c3cc(F)cc(c23)N[C@@H]1c1ccc(F)cc1 [Talazoparib]	E*	–
COc1cc(N2CCC(N3CCN(C)CC3)CC2)ccc1Nc1ncc(Cl)c(Nc2ccccc2P(C)(C)=O)n1 [Brigatinib]	E*	–
CC(C)(O)CNc1nc(Nc2ccnc(C(F)(F)F)c2)nc(-c2cccc(C(F)(F)F)n2)n1 [Enasidenib]	E*	–
CC(C)C[C@H](NC(=O)CNC(=O)c1cc(Cl)ccc1Cl)B(O)O [Ixazomib]	E*	–
CCS(=O)(=O)N1CC(CC#N)(n2cc(-c3ncnc4[nH]ccc34)cn2)C1 [Baricitinib]	E*	–
COc1cc2ncnc(Nc3ccc(F)c(Cl)c3)c2cc1NC(=O)/C=C/CN1CCCCC1 [Dacomitinib]	E*	–
COc1cc2c(Nc3ccc(Br)cc3F)ncnc2cc1OCC1CCN(C)CC1 [Vandetanib]	E*	–
COc1cc(Nc2c(C#N)cnc3cc(OCCCN4CCN(C)CC4)c(OC)cc23)c(Cl)cc1Cl [Bosutinib]	E*	–
C[C@H]1Oc2cc(cnc2N)-c2c(nn(C)c2C#N)CN(C)C(=O)c2ccc(F)cc21 [Lorlatinib]	E*	–

SMILES	Likelihood Score [2]	also measured
CC(C)(C)c1nc(-c2cccc(NS(=O)(=O)c3c(F)cccc3F)c2F)c(-c2ccnc(N)n2)s1 [Dabrafenib]	E*	–
NC(=O)c1cccc2cn(-c3ccc([C@@H]4CCCNC4)cc3)nc12 [Niraparib]	E*	–
COc1c(OCCCN2CCOCC2)ccc2c1N=C(NC(=O)c1cnc(N)nc1)N1CCN=C21 [Copanlisib]	E*	–
CCc1nc(C(N)=O)c(Nc2ccc(N3CCC(N4CCN(C)CC4)CC3)c(OC)c2)nc1NC1CCOCC1 [Gilteritinib]	E*	–
Cc1c(C(=O)Nc2ccc(N3C[C@@H](C)O[C@@H](C)C3)nc2)cccc1-c1ccc(OC(F)(F)F)cc1 [Sonidegib]	E*	–
CNCc1ccc(-c2[nH]c3cc(F)cc4c3c2CCNC4=O)cc1 [Rucaparib]	D*	–
O=C(Nc1cnn2ccc(N3CCC[C@@H]3c3cc(F)ccc3F)nc12)N1CC[C@H](O)C1 [Larotrectinib]	E*	–
C[C@H](Nc1ncnc2[nH]cnc12)c1cc2cccc(Cl)c2c(=O)n1-c1ccccc1 [Duvelisib]	E*	–
CCCCCCCCCCCCCOC(=O)CC(C(=O)OCCCCCCCCCCCCC)S(=O)(=O)O.[Na] (stereo not shown) [TR-70, sodium bis(tridecyl) sulfosuccinate]	–	% Epolight ™ 1117 Retention [1]: 50%
COc1cc2nccc(Oc3ccc(NC(=O)C4(C(=O)Nc5ccc(F)cc5)CC4)cc3)c2cc1OC [Cabozantinib]	E*	–
COc1cc(Nc2ncc(F)c(Nc3ccc4c(n3)N(COP(=O)(O)O)C(=O)C(C)(C)O4)n2)cc(OC)c1OC [Fostamatinib]	E*	–
Cn1cnc2c(F)c(Nc3ccc(Br)cc3F)c(C(=O)NOCCO)cc21 [Binimetinib]	E*	–
CCN1CCN(Cc2ccc(Nc3ncc(F)c(-c4cc(F)c5nc(C)n(C(C)C)c5c4)n3)nc2)CC1 [Abemaciclib]	E*	–
CCCS(=O)(=O)Nc1ccc(F)c(C(=O)c2c[nH]c3ncc(-c4ccc(Cl)cc4)cc23)c1F [Vemurafenib]	E*	–
Cc1ccc(C(=O)Nc2ccc(CN3CCN(C)CC3)c(C(F)(F)F)c2)cc1C#Cc1cnc2cccnn12 [Ponatinib]	E*	–
COC(=O)c1ccc2c(c1)NC(=O)/C2=C(\Nc1ccc(N(C)C(=O)CN2CCN(C)CC2)cc1)c1ccccc1 [Nintedanib]	E*	–
N#CC[C@H](C1CCCC1)n1cc(-c2ncnc3[nH]ccc23)cn1 [Ruxolitinib]	E*	–
